# Laboratory results taken from patent US20220041957A1, “GLUCAMIDE-BASED SURFACTANTS” (Clariant International Ltd., priority 2018, published 2022).
# Columns and labels:
# [1] = Foam (collapse) test; format: physicochemical; conditions: 20 mL of 1 wt. % solution, 20 shakes; for Foam Height, 2 min: after 2 min; for Foam Height, 3 min: after 3 min; for Foam Height, 5 min: after 5 min; for Foam Height, Initial: directly after shaking
# Method: 20 mL of 1 wt. % solution of each substance were placed into a graduated 100 mL measurement cylinder, which was sealed with a stopper. Foam was generated by 20 shakes. The foam height was determined as mL foam above the aqueous layer directly after shaking, after 2, 3 and 5 min.
# [2] = Wetting test on cotton swatches; format: physicochemical; conditions: 0.1 wt. % surfactant solution in water; for Wetting Performance: rating in words; for Wetting time: time until swatch sinks to bottom
# Method: Cotton swatches (ISO 8022, obtained from wfk-Testgewebe GmbH) were placed in 600 mL beaker, filled with the corresponding 0.1 wt. % surfactant solution in water. The time between placing the swatches into the solution and sinking to the bottom was measured.
"Foam Height, 2 min [1] [mL]","Foam Height, 3 min [1] [mL]","Foam Height, 5 min [1] [mL]","Foam Height, Initial [1] [mL]",Wetting Performance [2],Wetting time [2] [s],SMILES
60,33,19,80,good,60,CCCCCCCCCCCC(O)CC(=O)N(C)C[C@H](O)[C@@H](O)[C@H](O)[C@H](O)CO (stereo partly drawn) [Example 2]
67,50,33,89,poor,>300,CN(C[C@H](O)[C@@H](O)[C@H](O)[C@H](O)CO)C(=O)CCCCCCCCCCCCCCCO [Example 4]
